Results on 61 compounds are retold here after patent publication US8883789B2, “Piperazine derivatives and their use as positive allosteric modulators of mGluR5 receptors” (Boehringer Ingelheim International GmbH, priority 2011, dated 2014).

T1 sequence (P41594 21-1212): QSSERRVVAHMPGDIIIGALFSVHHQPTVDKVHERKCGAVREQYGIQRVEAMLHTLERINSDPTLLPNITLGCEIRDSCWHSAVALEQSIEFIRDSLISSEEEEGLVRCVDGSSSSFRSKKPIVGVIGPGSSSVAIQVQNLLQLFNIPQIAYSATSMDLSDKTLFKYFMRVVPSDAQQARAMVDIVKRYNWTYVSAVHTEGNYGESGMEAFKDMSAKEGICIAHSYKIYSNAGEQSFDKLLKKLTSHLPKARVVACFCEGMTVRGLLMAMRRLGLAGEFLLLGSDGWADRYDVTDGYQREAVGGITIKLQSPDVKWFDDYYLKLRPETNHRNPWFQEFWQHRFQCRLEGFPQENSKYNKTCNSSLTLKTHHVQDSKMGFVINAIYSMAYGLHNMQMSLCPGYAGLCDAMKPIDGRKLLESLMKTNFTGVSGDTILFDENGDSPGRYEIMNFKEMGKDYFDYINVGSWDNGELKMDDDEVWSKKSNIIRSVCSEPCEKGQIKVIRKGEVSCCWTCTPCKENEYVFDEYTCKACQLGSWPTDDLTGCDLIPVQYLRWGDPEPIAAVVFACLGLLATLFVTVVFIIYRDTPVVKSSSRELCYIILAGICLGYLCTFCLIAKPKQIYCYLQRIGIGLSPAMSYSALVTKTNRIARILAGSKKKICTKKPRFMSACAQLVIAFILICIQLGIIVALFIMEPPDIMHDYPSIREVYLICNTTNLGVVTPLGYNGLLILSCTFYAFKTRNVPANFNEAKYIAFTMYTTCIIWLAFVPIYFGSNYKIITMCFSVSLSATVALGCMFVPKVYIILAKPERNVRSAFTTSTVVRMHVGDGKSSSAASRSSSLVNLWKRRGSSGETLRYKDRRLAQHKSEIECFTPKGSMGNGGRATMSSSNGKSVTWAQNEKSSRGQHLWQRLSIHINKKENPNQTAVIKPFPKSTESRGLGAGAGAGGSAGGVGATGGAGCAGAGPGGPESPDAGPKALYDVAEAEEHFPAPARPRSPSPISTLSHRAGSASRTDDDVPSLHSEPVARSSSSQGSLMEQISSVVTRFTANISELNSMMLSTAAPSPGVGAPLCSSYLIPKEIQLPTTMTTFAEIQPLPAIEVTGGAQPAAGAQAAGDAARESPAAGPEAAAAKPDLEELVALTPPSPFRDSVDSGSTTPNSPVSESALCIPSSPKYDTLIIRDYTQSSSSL

The experiment has as its target T1, human recombinant mGluR5 (Homo sapiens, UniProt P41594).
T1 construct: expressed in transfected cells; hygromycin and geneticin selection
Put plainly: positive modulation of mGluR5, calcium based FLIPR assay. As to conditions: HEK 293 cell line expressing human recombinant mGluR5; Ca2+ peak height after glutamate at approximately 5% basal stimulation; nonlinear regression. A digest of the protocol:
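HEK293 cells with tetracycline-free induction, Calcium-4 dye-loaded in Ringer pH 7.4. Compound added 5 min before glutamate at ~5% of maximal effect, 1% DMSO. EC50 from peak Ca2+ fluorescence, normalized to basal glutamate (100%) and 10 μM CDPPB (200%), via nonlinear regression.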
Take `CC1(C)CN(C(=O)c2coc(C3CC3)n2)CCN1C(=O)c1ncn(-c2ccccc2)n1` [Example 140]: the half-maximal effective concentration (EC50) came out at 661 nM.

Consider `Cc1oc2ccc(Br)cc2c1C(=O)N1CCN(C(=O)c2ncn(-c3ccccc3)n2)C(C)(C)C1` [Example 100], for which the EC50 came out at 29 nM.

On to `COc1cc(C(=O)N2CCN(C(=O)c3ncn(-c4cccc(Cl)c4)n3)C(C)C2)ccc1C` (stereo not shown) [Example 277], for which the EC50 turned out to be 507 nM.

For `CC1CN(C(=O)c2cn(C)c3ccccc23)CCN1C(=O)c1ncn(-c2cccc(Cl)c2)n1` (stereo not shown) [Example 276], the half-maximal effective concentration (EC50) came to 264 nM.

In the case of `CC1(C)CN(C(=O)c2csc(C(F)(F)F)n2)CCN1C(=O)c1ncn(-c2ccccc2)n1` [Example 152], the EC50 came to 291 nM.

Turning to `Cc1c(C(=O)N2CCN(C(=O)c3ncn(-c4cccc(Cl)c4)n3)C(C)C2)oc2ccccc12` (stereo not shown) [Example 279], the half-maximal effective concentration (EC50) is 530 nM.

On to `COc1cc(Cl)cc(C(=O)N2CCN(C(=O)c3ncn(-c4cccc(Cl)c4)n3)C(C)(C)C2)n1` [Example 17], for which the 50% effective concentration (EC50) was 45 nM.

As to `COc1ccc(C(=O)N2CCN(C(=O)c3ncn(-c4ccccc4)n3)C(C)(C)C2)o1` [Example 132], the EC50 amounted to 1810 nM.

As for `CCC1CN(C(=O)c2ncn(-c3cccc(Cl)c3)n2)CCN1C(=O)c1cccc(OC)n1` (stereo not shown) [Example 258, {4-[1-(3-Chloro-phenyl)-1H-[1,2,4]triazole-3-carbonyl]-2-ethyl-piperazin-1-yl}-(6-methoxy-pyridin-2-yl)-methanone], the EC50 came out at 172 nM.

On to `Cc1ccc(-n2cnc(C(=O)N3CCN(C(=O)c4cc(Cl)c5c(c4)OCCO5)CC3(C)C)n2)cc1F` [Example 157, [4-(8-Chloro-2,3-dihydro-benzo[1,4]dioxine-6-carbonyl)-2,2-dimethyl-piperazin-1-yl]-[1-(3-fluoro-4-methyl-phenyl)-1H-[1,2,4]triazol-3-yl]-methanone], for which the EC50 came to 364 nM.

As to `CC1(C)CN(C(=O)c2cccc(C3CC3)n2)CCN1C(=O)c1nnn(-c2cccc(F)c2)n1` [Example 185], the EC50 was 36 nM.

On to `CC1CN(C(=O)c2sc3ccccc3c2Cl)CCN1C(=O)c1ncn(-c2cccc(Cl)c2)n1` (stereo not shown) [Example 271], for which the EC50 came out at 621 nM.

Consider `CC1(C)CN(C(=O)c2cccc(C(F)(F)F)n2)CCN1C(=O)c1ncn(-c2ccccc2)n1` [Example 101], for which the EC50 was determined as 52 nM.

As for `CC(=O)Nc1ccc2oc(C(=O)N3CCN(C(=O)c4ncn(-c5ccccc5)n4)C(C)(C)C3)c(C)c2c1` [Example 133], the EC50 turned out to be 1110 nM.

Regarding `Cc1oc2ccc(F)cc2c1C(=O)N1CCN(C(=O)c2ncn(-c3cccc(F)c3)n2)C(C)(C)C1` [Example 2], the concentration giving a half-maximal response (EC50) turned out to be 67 nM.

Consider `CC(C)(C)c1cccc(C(=O)N2CCN(C(=O)c3ncn(-c4ccccc4)n3)C(C)(C)C2)c1` [Example 130], for which the EC50 is 31 nM.

Regarding `COc1cccc(C(=O)N2C[C@@H](C)N(C(=O)c3ncn(-c4cccc(F)c4)n3)[C@@H](C)C2)n1` [Example 303], the EC50 was 215 nM.

Take `CC1(C)CN(C(=O)c2cccc(COc3ccccc3)c2)CCN1C(=O)c1ncn(-c2cccc(Cl)c2)n1` [Example 74]: the EC50 is 170 nM.

Consider `COc1nc(C(=O)N2CCN(C(=O)c3ncn(-c4ccccc4)n3)C(C)(C)C2)cc2ccccc12` [Example 97], for which the concentration giving a half-maximal response (EC50) amounted to 25 nM.

With `COc1cc(C)cc(C(=O)N2CCN(C(=O)c3ncn(-c4cccc(Cl)c4)n3)C(C)(C)C2)n1` [Example 22], the EC50 was 58 nM.

For `Cc1ccc(Cl)cc1C(=O)N1CCN(C(=O)c2ncn(-c3cccc(Cl)c3)n2)C(C)(C)C1` [Example 57], the half-maximal effective concentration (EC50) was found to be 120 nM.

For the compound `O=C(c1cccc(Cl)c1)N1CCN(C(=O)c2ncn(-c3ccccc3)n2)C2(CCCC2)C1` [Example 309], the concentration giving a half-maximal response (EC50) was 145 nM.

For `CC1(C)CN(C(=O)c2cccc(Cl)c2)CCN1C(=O)c1ncn(-c2cccc(F)c2)n1` [Example 190], the 50% effective concentration (EC50) was found to be 57 nM.

`Cc1nn(C)cc1-c1cccc(C(=O)N2CCN(C(=O)c3ncn(-c4cccc(Cl)c4)n3)C(C)(C)C2)n1` [Example 93]: the half-maximal effective concentration (EC50) stood at 242 nM.

For `CC(=O)c1cccc(C(=O)N2CCN(C(=O)c3ncn(-c4cccc(Cl)c4)n3)C(C)(C)C2)n1` [Example 52], the EC50 amounted to 63 nM.

Regarding `Cc1c(C(=O)N2CCN(C(=O)c3ncn(-c4cccc(Cl)c4)n3)C(C)(C)C2)oc2ccccc12` [Example 45], the EC50 worked out at 54 nM.

In the case of `COCc1cccc(C(=O)N2CCN(C(=O)c3ncn(-c4cccc(Cl)c4)n3)C(C)(C)C2)n1` [Example 38], the EC50 was 410 nM.

As for `COc1nc(C(=O)N2CCN(C(=O)c3nnn(-c4cccc(Cl)c4)n3)C(C)(C)C2)cc2ccccc12` [Example 208], the half-maximal effective concentration (EC50) amounted to 125 nM.

Turning to `COc1ccc2oc(C)c(C(=O)N3CCN(C(=O)c4ncn(-c5cccc(C)c5)n4)C(C)C3)c2c1` (stereo not shown) [Example 290], the EC50 was found to be 272 nM.

Consider `CC1CN(C(=O)c2cc(Br)c(Br)o2)CCN1C(=O)c1ncn(-c2cccc(Cl)c2)n1` (stereo not shown) [Example 266], for which the EC50 worked out at 538 nM.

With `COc1cccc(C(=O)N2CCN(C(=O)c3ncn(-c4ccc(F)c(C)c4)n3)C(C)(C)C2)n1` [Example 161], the EC50 is 316 nM.

As for `CC1(C)CN(C(=O)c2csc(C3CC3)n2)CCN1C(=O)c1ncn(-c2ccccc2)n1` [Example 141], the EC50 came out at 487 nM.

Regarding `CCCOc1cccc(C(=O)N2CCN(C(=O)c3ncn(-c4cccc(Cl)c4)n3)C(C)C2)c1` (stereo not shown) [Example 285], the EC50 was found to be 746 nM.

`COc1nc(C(=O)N2CCN(C(=O)c3ncn(-c4cccc(Cl)c4)n3)C(C)(C)C2)cc2cc(F)ccc12` [Example 21]: the EC50 came out at 62 nM.

As for `CC1CN(C(=O)c2ccc3ccn(C)c3c2)CCN1C(=O)c1ncn(-c2cccc(Cl)c2)n1` (stereo not shown) [Example 272], the concentration for a half-maximal effect (EC50) came to 350 nM.

`CC1(C)CN(C(=O)c2cccc(C(F)(F)F)n2)CCN1C(=O)c1ncn(-c2cccc(Cl)c2)n1` [Example 13]: the EC50 amounted to 22 nM.

For the compound `Cc1ccc(Cl)cc1C(=O)N1CCN(C(=O)c2ncn(-c3ccccc3)n2)C(C)(C)C1` [Example 154], the half-maximal effective concentration (EC50) turned out to be 157 nM.

As for `COCc1c(C(=O)N2CCN(C(=O)c3ncn(-c4ccccc4)n3)C(C)(C)C2)oc2ccccc12` [Example 107], the EC50 turned out to be 108 nM.

As to `COc1cccc(C(=O)N2CCN(C(=O)c3ncn(-c4cccc(Cl)c4)n3)C(C)C2)n1` (stereo not shown) [Example 265, {4-[1-(3-Chloro-phenyl)-1H-[1,2,4]-triazole-3-carbonyl]-3-methyl-piperazin-1-yl}-(6-methoxy-pyridin-2-yl)-methanone], the EC50 was determined as 194 nM.

As to `Cc1oc2ccccc2c1C(=O)N1CCN(C(=O)c2ncn(-c3cccc(F)c3)n2)C(C)(C)C1` [Example 5], the concentration giving a half-maximal response (EC50) turned out to be 131 nM.

Regarding `CC1(C)CN(C(=O)c2cccc(Cl)c2)CCN1C(=O)c1nnn(-c2ccccc2F)n1` [Example 196], the EC50 amounted to 156 nM.

Take `COc1cc(Cl)cc(C(=O)N2CCN(C(=O)c3nnn(-c4ccccc4)n3)C(C)(C)C2)n1` [Example 165]: the concentration giving a half-maximal response (EC50) was determined as 25 nM.

As to `CC1(C)CN(C(=O)c2cccc(C(F)F)c2)CCN1C(=O)c1ncn(-c2ccccc2)n1` [Example 135], the concentration for a half-maximal effect (EC50) was 47 nM.

As for `CCC1CN(C(=O)c2ncn(-c3cccc(F)c3)n2)CCN1C(=O)c1cc(Br)c(Br)o1` (stereo not shown) [Example 260], the EC50 came out at 153 nM.

As for `CCOc1nc(C(=O)N2CCN(C(=O)c3ncn(-c4ccccc4)n3)C(C)(C)C2)cc2ccccc12` [Example 120], the concentration for a half-maximal effect (EC50) amounted to 43 nM.

For `Cc1c(C(=O)N2CCN(C(=O)c3ncn(-c4cccc(F)c4)n3)C(C)(C)C2)n(C)c2ccccc12` [Example 6], the EC50 was 197 nM.

For `Cc1oc2ccccc2c1C(=O)N1CCN(C(=O)c2ncn(-c3ccccc3)n2)CC1C` (stereo not shown) [Example 240], the EC50 is 350 nM.

As for `CC1(C)CN(C(=O)c2cc3ccccc3c(OCC3CC3)n2)CCN1C(=O)c1ncn(-c2cccc(Cl)c2)n1` [Example 85], the half-maximal effective concentration (EC50) came out at 109 nM.

Consider `CC(C)c1ccc(C(=O)N2CCN(C(=O)c3ncn(-c4cccc(Cl)c4)n3)C(C)(C)C2)cc1` [Example 61], for which the 50% effective concentration (EC50) worked out at 96 nM.

`COc1cccc(C(=O)N2CCN(C(=O)c3ncn(-c4cccc(Cl)c4)n3)C(C)(C)C2)n1` [Example 18]: the concentration giving a half-maximal response (EC50) came out at 48 nM.

Regarding `COc1ccc2oc(C)c(C(=O)N3CCN(C(=O)c4ncn(-c5ccccc5)n4)CC3C)c2c1` (stereo not shown) [Example 242], the EC50 was found to be 114 nM.

Regarding `CC1(C)CN(C(=O)c2cc(Cl)cc(C(F)(F)F)c2)CCN1C(=O)c1ncn(-c2ccccc2)n1` [Example 145], the EC50 was found to be 120 nM.

As for `CC1(C)CN(C(=O)c2cccc(C3CC3)n2)CCN1C(=O)c1ncn(-c2cccc(F)c2)n1` [Example 184], the 50% effective concentration (EC50) turned out to be 33 nM.

As to `O=C(c1cc(Br)c(Br)o1)N1CCN(C(=O)c2ncn(-c3cccc(F)c3)n2)C2(CC2)C1` [Example 305], the concentration giving a half-maximal response (EC50) was found to be 503 nM.

Turning to `CC1CN(C(=O)c2ncn(-c3cccc(Cl)c3)n2)CCN1C(=O)c1cc(Cl)c2c(c1)OCCO2` (stereo not shown) [Example 221], the EC50 is 174 nM.

As to `COc1cc(C(=O)N2CCN(C(=O)c3ncn(-c4cccc(C)c4)n3)C(C)C2)ccc1C` (stereo not shown) [Example 288], the concentration giving a half-maximal response (EC50) amounted to 372 nM.

`CCCOc1cccc(C(=O)N2CCN(C(=O)c3ncn(-c4cccc(Cl)c4)n3)C(C)(C)C2)c1` [Example 20]: the half-maximal effective concentration (EC50) amounted to 53 nM.

Consider `CC1CN(C(=O)c2ncn(-c3cccc(Cl)c3)n2)CCN1C(=O)c1cccc(-c2ccn(C)n2)c1` (stereo not shown) [Example 225], for which the EC50 was 498 nM.

For `CN(C)c1cccc(C(=O)N2CCN(C(=O)c3ncn(-c4cccc(Cl)c4)n3)C(C)(C)C2)c1` [Example 44], the 50% effective concentration (EC50) stood at 136 nM.

In the case of `CC1CN(C(=O)c2ncn(-c3cccc(F)c3)n2)CCN1C(=O)c1cc(Cl)c2c(c1)OCCO2` (stereo not shown) [Example 234], the EC50 is 301 nM.

On to `C[C@H]1CN(C(=O)c2ncn(-c3cccc(Cl)c3)n2)CCN1C(=O)c1cc(Br)c(Br)o1` [Example 254], for which the concentration for a half-maximal effect (EC50) came to 157 nM.

A word on the EC50: it is the concentration needed to bring the measured effect to its halfway point.
